The NIST ThermoML archive (doi:10.1021/je200856f)
± gives the expanded uncertainty stated by the source.

Assay: mn = molality of the nth substance listed, in mol/kg
Details: 101 kPa, Liquid; for mass density: Vibrating tube method; for electrical conductivity: Wheatstone bridge equipment

In the case of `C[N+](C)(C)CCCl.[Cl-]` [2-chloro-N,N,N-trimethylethanaminium chloride] + O, the mass density (278.15 K, m1 = 0.0506) is reported as 1001.45 ± 0.23 kg/m3, the mass density (278.15 K, m1 = 0.1009) is reported as 1002.89 ± 0.24 kg/m3 and the mass density (278.15 K, m1 = 0.2364) is reported as 1006.79 ± 0.25 kg/m3. For the same molecule, the mass density (278.15 K, m1 = 0.501) was 1013.92 ± 0.28 kg/m3, the mass density (278.15 K, m1 = 0.6523) was 1017.88 ± 0.29 kg/m3 and the mass density (278.15 K, m1 = 0.7529) was 1020.46 ± 0.3 kg/m3. For the same molecule, the mass density (278.15 K, m1 = 1.2) was 1031.18 ± 0.35 kg/m3, the mass density (278.15 K, m1 = 1.497) was 1038.13 ± 0.37 kg/m3 and the mass density (278.15 K, m1 = 1.986) was 1048.24 ± 0.42 kg/m3. The viscosity (278.15 K, m1 = 0.0236) was 1.526 ± 0.048 mPa·s, the viscosity (278.15 K, m1 = 0.0464) was 1.536 ± 0.049 mPa·s and the viscosity (278.15 K, m1 = 0.0994) was 1.555 ± 0.049 mPa·s. The viscosity (278.15 K, m1 = 0.2464) was 1.61 ± 0.051 mPa·s, the viscosity (278.15 K, m1 = 0.3552) was 1.656 ± 0.052 mPa·s and the viscosity (278.15 K, m1 = 0.499) was 1.712 ± 0.054 mPa·s. For the same molecule, the viscosity (278.15 K, m1 = 0.6479) was 1.778 ± 0.056 mPa·s, the viscosity (278.15 K, m1 = 0.7493) was 1.815 ± 0.057 mPa·s and the viscosity (278.15 K, m1 = 0.9041) was 1.914 ± 0.061 mPa·s. It also gave a viscosity (278.15 K, m1 = 0.9927) of 1.933 ± 0.061 mPa·s, a viscosity (278.15 K, m1 = 1.176) of 2.01 ± 0.064 mPa·s and a viscosity (278.15 K, m1 = 1.542) of 2.298 ± 0.073 mPa·s. It also gave a viscosity (278.15 K, m1 = 2.148) of 2.612 ± 0.083 mPa·s, a mass density (288.15 K, m1 = 0.0506) of 1000.52 ± 0.23 kg/m3 and a mass density (288.15 K, m1 = 0.1009) of 1001.9 ± 0.24 kg/m3. For the same molecule, the mass density (288.15 K, m1 = 0.2364) was 1005.65 ± 0.25 kg/m3, the mass density (288.15 K, m1 = 0.501) was 1012.48 ± 0.27 kg/m3 and the mass density (288.15 K, m1 = 0.6523) was 1016.28 ± 0.29 kg/m3. For the same molecule, the mass density (288.15 K, m1 = 0.7529) was 1018.75 ± 0.3 kg/m3, the mass density (288.15 K, m1 = 1.2) was 1029.02 ± 0.34 kg/m3 and the mass density (288.15 K, m1 = 1.497) was 1035.68 ± 0.37 kg/m3. The mass density (288.15 K, m1 = 1.986) was 1045.39 ± 0.41 kg/m3, the viscosity (288.15 K, m1 = 0.0236) was 1.148 ± 0.036 mPa·s and the viscosity (288.15 K, m1 = 0.0464) was 1.156 ± 0.037 mPa·s. The viscosity (288.15 K, m1 = 0.0994) was 1.172 ± 0.037 mPa·s, the viscosity (288.15 K, m1 = 0.2464) was 1.211 ± 0.038 mPa·s and the viscosity (288.15 K, m1 = 0.3552) was 1.241 ± 0.039 mPa·s. It also gave a viscosity (288.15 K, m1 = 0.499) of 1.286 ± 0.041 mPa·s, a viscosity (288.15 K, m1 = 0.6479) of 1.335 ± 0.042 mPa·s and a viscosity (288.15 K, m1 = 0.7493) of 1.362 ± 0.043 mPa·s. For the same molecule, the viscosity (288.15 K, m1 = 0.9041) was 1.433 ± 0.045 mPa·s, the viscosity (288.15 K, m1 = 0.9927) was 1.447 ± 0.046 mPa·s and the viscosity (288.15 K, m1 = 1.176) was 1.502 ± 0.048 mPa·s. For the same molecule, the viscosity (288.15 K, m1 = 1.542) was 1.708 ± 0.054 mPa·s, the viscosity (288.15 K, m1 = 2.148) was 1.932 ± 0.062 mPa·s and the mass density (298.15 K, m1 = 0.0506) was 998.426 ± 0.23 kg/m3. It also gave a mass density (298.15 K, m1 = 0.1009) of 999.762 ± 0.23 kg/m3, a mass density (298.15 K, m1 = 0.2364) of 1003.4 ± 0.25 kg/m3 and a mass density (298.15 K, m1 = 0.501) of 1010.02 ± 0.27 kg/m3. For the same molecule, the mass density (298.15 K, m1 = 0.6523) was 1013.7 ± 0.29 kg/m3, the mass density (298.15 K, m1 = 0.7529) was 1016.09 ± 0.29 kg/m3 and the mass density (298.15 K, m1 = 1.2) was 1026.04 ± 0.34 kg/m3. For the same molecule, the mass density (298.15 K, m1 = 1.497) was 1032.48 ± 0.36 kg/m3, the mass density (298.15 K, m1 = 1.986) was 1041.87 ± 0.41 kg/m3 and the electrical conductivity (298.15 K, m1 = 0.0277) was 0.265 ± 0.003 S/m. It also gave an electrical conductivity (298.15 K, m1 = 0.0514) of 0.49 ± 0.005 S/m, an electrical conductivity (298.15 K, m1 = 0.1003) of 0.898 ± 0.009 S/m and an electrical conductivity (298.15 K, m1 = 0.2497) of 1.97 ± 0.02 S/m. For the same molecule, the electrical conductivity (298.15 K, m1 = 0.3502) was 2.58 ± 0.03 S/m, the electrical conductivity (298.15 K, m1 = 0.5001) was 3.36 ± 0.04 S/m and the electrical conductivity (298.15 K, m1 = 0.6509) was 4.1 ± 0.04 S/m. For the same molecule, the electrical conductivity (298.15 K, m1 = 0.7498) was 4.51 ± 0.05 S/m, the electrical conductivity (298.15 K, m1 = 0.8997) was 5.07 ± 0.05 S/m and the electrical conductivity (298.15 K, m1 = 0.9998) was 5.42 ± 0.06 S/m. For the same molecule, the electrical conductivity (298.15 K, m1 = 1.212) was 6.08 ± 0.06 S/m, the electrical conductivity (298.15 K, m1 = 1.507) was 6.81 ± 0.07 S/m and the electrical conductivity (298.15 K, m1 = 1.998) was 7.67 ± 0.08 S/m. The viscosity (298.15 K, m1 = 0.0236) was 0.907 ± 0.029 mPa·s, the viscosity (298.15 K, m1 = 0.0464) was 0.913 ± 0.029 mPa·s and the viscosity (298.15 K, m1 = 0.0994) was 0.924 ± 0.029 mPa·s. For the same molecule, the viscosity (298.15 K, m1 = 0.2464) was 0.955 ± 0.03 mPa·s, the viscosity (298.15 K, m1 = 0.3552) was 0.977 ± 0.031 mPa·s and the viscosity (298.15 K, m1 = 0.499) was 1.012 ± 0.032 mPa·s. The viscosity (298.15 K, m1 = 0.6479) was 1.047 ± 0.033 mPa·s, the viscosity (298.15 K, m1 = 0.7493) was 1.069 ± 0.034 mPa·s and the viscosity (298.15 K, m1 = 0.9041) was 1.124 ± 0.036 mPa·s. It also gave a viscosity (298.15 K, m1 = 0.9927) of 1.133 ± 0.036 mPa·s, a viscosity (298.15 K, m1 = 1.176) of 1.173 ± 0.037 mPa·s and a viscosity (298.15 K, m1 = 1.542) of 1.292 ± 0.041 mPa·s. The viscosity (298.15 K, m1 = 2.148) was 1.493 ± 0.048 mPa·s, the mass density (308.15 K, m1 = 0.0506) was 995.387 ± 0.23 kg/m3 and the mass density (308.15 K, m1 = 0.1009) was 996.694 ± 0.23 kg/m3. It also gave a mass density (308.15 K, m1 = 0.2364) of 1000.25 ± 0.24 kg/m3, a mass density (308.15 K, m1 = 0.501) of 1006.72 ± 0.27 kg/m3 and a mass density (308.15 K, m1 = 0.6523) of 1010.32 ± 0.28 kg/m3. It also gave a mass density (308.15 K, m1 = 0.7529) of 1012.65 ± 0.29 kg/m3, a mass density (308.15 K, m1 = 1.2) of 1022.36 ± 0.34 kg/m3 and a mass density (308.15 K, m1 = 1.497) of 1028.63 ± 0.36 kg/m3. The mass density (308.15 K, m1 = 1.986) was 1037.78 ± 0.4 kg/m3, the viscosity (308.15 K, m1 = 0.0236) was 0.711 ± 0.023 mPa·s and the viscosity (308.15 K, m1 = 0.0464) was 0.714 ± 0.023 mPa·s. The viscosity (308.15 K, m1 = 0.0994) was 0.722 ± 0.023 mPa·s, the viscosity (308.15 K, m1 = 0.2464) was 0.757 ± 0.024 mPa·s and the viscosity (308.15 K, m1 = 0.3552) was 0.77 ± 0.025 mPa·s. The viscosity (308.15 K, m1 = 0.499) was 0.793 ± 0.025 mPa·s, the viscosity (308.15 K, m1 = 0.6479) was 0.831 ± 0.026 mPa·s and the viscosity (308.15 K, m1 = 0.7493) was 0.833 ± 0.027 mPa·s. For the same molecule, the viscosity (308.15 K, m1 = 0.9041) was 0.879 ± 0.028 mPa·s, the viscosity (308.15 K, m1 = 0.9927) was 0.89 ± 0.028 mPa·s and the viscosity (308.15 K, m1 = 1.176) was 0.915 ± 0.029 mPa·s. It also gave a viscosity (308.15 K, m1 = 1.542) of 1.005 ± 0.032 mPa·s, a viscosity (308.15 K, m1 = 2.148) of 1.158 ± 0.037 mPa·s and a mass density (318.15 K, m1 = 0.0506) of 991.452 ± 0.23 kg/m3. For the same molecule, the mass density (318.15 K, m1 = 0.1009) was 992.837 ± 0.23 kg/m3, the mass density (318.15 K, m1 = 0.2364) was 996.273 ± 0.24 kg/m3 and the mass density (318.15 K, m1 = 0.501) was 1002.68 ± 0.27 kg/m3. For the same molecule, the mass density (318.15 K, m1 = 0.6523) was 1006.2 ± 0.28 kg/m3, the mass density (318.15 K, m1 = 0.7529) was 1008.52 ± 0.29 kg/m3 and the mass density (318.15 K, m1 = 1.2) was 1018.06 ± 0.33 kg/m3. The mass density (318.15 K, m1 = 1.497) was 1024.21 ± 0.35 kg/m3, the mass density (318.15 K, m1 = 1.986) was 1033.17 ± 0.4 kg/m3 and the viscosity (318.15 K, m1 = 0.0236) was 0.596 ± 0.019 mPa·s. The viscosity (318.15 K, m1 = 0.0464) was 0.595 ± 0.019 mPa·s, the viscosity (318.15 K, m1 = 0.0994) was 0.602 ± 0.019 mPa·s and the viscosity (318.15 K, m1 = 0.2464) was 0.645 ± 0.021 mPa·s. For the same molecule, the viscosity (318.15 K, m1 = 0.3552) was 0.66 ± 0.021 mPa·s, the viscosity (318.15 K, m1 = 0.499) was 0.661 ± 0.021 mPa·s and the viscosity (318.15 K, m1 = 0.6479) was 0.694 ± 0.022 mPa·s. The viscosity (318.15 K, m1 = 0.7493) was 0.691 ± 0.022 mPa·s, the viscosity (318.15 K, m1 = 0.9041) was 0.733 ± 0.023 mPa·s and the viscosity (318.15 K, m1 = 0.9927) was 0.75 ± 0.024 mPa·s. For the same molecule, the viscosity (318.15 K, m1 = 1.176) was 0.759 ± 0.024 mPa·s, the viscosity (318.15 K, m1 = 1.542) was 0.835 ± 0.027 mPa·s and the viscosity (318.15 K, m1 = 2.148) was 0.948 ± 0.03 mPa·s.
